Measurements reported in PubChem BioAssay (NCI).
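1) Cells in 96-well plates. 2) Compound, 48 h, 5 concentrations. 3) Linear interpolation between surrounding doses. 4) Unreached endpoint = highest concentration. GI50 marks 50% less growth. TGI: concentration producing complete growth inhibition.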

Legend:
Assay in all cases: growth of human tumour cells (NCI), 48 h
[1] = tested on: 786-0 renal
[2] = tested on: A498 renal
[3] = tested on: A549 NSCLC
[4] = tested on: ACHN renal
[5] = tested on: BT-549 breast
[6] = tested on: CAKI-1 renal
[7] = tested on: CCRF-CEM leukemia
[8] = tested on: COLO 205 colon
[9] = tested on: DU-145 prostate
[10] = tested on: EKVX NSCLC
[11] = tested on: HCT-116 colon
[12] = tested on: HCT-15 colon
[13] = tested on: HL-60(TB) leukemia
[14] = tested on: HOP-62 NSCLC
[15] = tested on: HS 578T breast
[16] = tested on: HT29 colon
[17] = tested on: IGROV1 ovarian
[18] = tested on: K-562 leukemia
[19] = tested on: KM12 colon
[20] = tested on: LOX IMVI melanoma
[21] = tested on: M14 melanoma
[22] = tested on: MALME-3M melanoma
[23] = tested on: MCF7 breast
[24] = tested on: MDA-MB-231 breast
[25] = tested on: MDA-MB-435
[26] = tested on: MOLT-4 leukemia
[27] = tested on: NCI-H226 lung
[28] = tested on: NCI-H23 lung
[29] = tested on: NCI-H460 lung
[30] = tested on: NCI-H522 lung
[31] = tested on: NCI/ADR-RES ovarian
[32] = tested on: OVCAR-3 ovarian
[33] = tested on: OVCAR-4 ovarian
[34] = tested on: OVCAR-5 ovarian
[35] = tested on: OVCAR-8 ovarian
[36] = tested on: PC-3 prostate
[37] = tested on: RPMI-8226 leukemia
[38] = tested on: RXF 393 renal
[39] = tested on: SF-268 CNS
[40] = tested on: SF-295 CNS
[41] = tested on: SF-539 CNS
[42] = tested on: SK-MEL-2 melanoma
[43] = tested on: SK-MEL-28 melanoma
[44] = tested on: SK-MEL-5 melanoma
[45] = tested on: SK-OV-3 ovarian
[46] = tested on: SNB-19 CNS
[47] = tested on: SNB-75 CNS
[48] = tested on: SR leukemia
[49] = tested on: SW-620 colon
[50] = tested on: T-47D breast
[51] = tested on: TK-10 renal
[52] = tested on: U251 CNS
[53] = tested on: UACC-257 melanoma
[54] = tested on: UACC-62 melanoma
[55] = tested on: UO-31 renal

In the case of `Cc1ccc(/C(=N/NS(=O)(=O)c2ccc([N+](=O)[O-])cc2)Sc2cc(Cl)c(C)cc2S(N)(=O)=O)cc1`, the GI50 [1] is reported as over 100 µM, the TGI [1] is reported as over 100 µM and the GI50 [2] is reported as over 100 µM. For the same compound, the TGI [2] was over 100 µM, the GI50 [3] was over 100 µM and the TGI [3] was over 100 µM. It also gave a GI50 [4] of over 100 µM, a TGI [4] of over 100 µM and a GI50 [5] of over 100 µM. The TGI [5] was over 100 µM, the GI50 [6] was over 100 µM and the TGI [6] was over 100 µM. The GI50 [7] was over 100 µM, the TGI [7] was over 100 µM and the GI50 [8] was over 100 µM. The TGI [8] was over 100 µM, the GI50 [9] was over 100 µM and the TGI [9] was over 100 µM. For the same compound, the GI50 [10] was over 100 µM, the TGI [10] was over 100 µM and the GI50 [11] was over 100 µM. The TGI [11] was over 100 µM, the GI50 [12] was over 100 µM and the TGI [12] was over 100 µM. It also gave a GI50 [13] of over 100 µM, a TGI [13] of over 100 µM and a GI50 [14] of over 100 µM. For the same compound, the TGI [14] was over 100 µM, the GI50 [15] was over 100 µM and the TGI [15] was over 100 µM. It also gave a GI50 [16] of over 100 µM, a TGI [16] of over 100 µM and a GI50 [17] of over 100 µM. For the same compound, the TGI [17] was over 100 µM, the GI50 [18] was over 100 µM and the TGI [18] was over 100 µM. The GI50 [19] was over 100 µM, the TGI [19] was over 100 µM and the GI50 [20] was over 100 µM. The TGI [20] was over 100 µM, the GI50 [21] was over 100 µM and the TGI [21] was over 100 µM. It also gave a GI50 [22] of 11.9 µM, a TGI [22] of over 100 µM and a GI50 [23] of over 100 µM. The TGI [23] was over 100 µM, the GI50 [24] was 27.3 µM and the TGI [24] was over 100 µM. For the same compound, the GI50 [25] was over 100 µM, the TGI [25] was over 100 µM and the GI50 [26] was over 100 µM. For the same compound, the TGI [26] was over 100 µM, the GI50 [27] was over 100 µM and the TGI [27] was over 100 µM. It also gave a GI50 [28] of over 100 µM, a TGI [28] of over 100 µM and a GI50 [29] of over 100 µM. It also gave a TGI [29] of over 100 µM, a GI50 [30] of over 100 µM and a TGI [30] of over 100 µM. It also gave a GI50 [31] of over 100 µM, a TGI [31] of over 100 µM and a GI50 [32] of over 100 µM. It also gave a TGI [32] of over 100 µM, a GI50 [33] of over 100 µM and a TGI [33] of over 100 µM. For the same compound, the GI50 [34] was over 100 µM, the TGI [34] was over 100 µM and the GI50 [35] was over 100 µM. The TGI [35] was over 100 µM, the GI50 [36] was 12.5 µM and the TGI [36] was over 100 µM. The GI50 [37] was 11.9 µM, the TGI [37] was over 100 µM and the GI50 [38] was 47.7 µM. The TGI [38] was over 100 µM, the GI50 [39] was over 100 µM and the TGI [39] was over 100 µM. The GI50 [40] was over 100 µM, the TGI [40] was over 100 µM and the GI50 [41] was over 100 µM. The TGI [41] was over 100 µM, the GI50 [42] was over 100 µM and the TGI [42] was over 100 µM. It also gave a GI50 [43] of over 100 µM, a TGI [43] of over 100 µM and a GI50 [44] of over 100 µM. It also gave a TGI [44] of over 100 µM, a GI50 [45] of over 100 µM and a TGI [45] of over 100 µM. It also gave a GI50 [46] of over 100 µM, a TGI [46] of over 100 µM and a GI50 [47] of over 100 µM. It also gave a TGI [47] of over 100 µM, a GI50 [48] of over 100 µM and a TGI [48] of over 100 µM. For the same compound, the GI50 [49] was over 100 µM, the TGI [49] was over 100 µM and the GI50 [50] was over 100 µM. For the same compound, the TGI [50] was over 100 µM, the GI50 [51] was over 100 µM and the TGI [51] was over 100 µM. The GI50 [52] was over 100 µM, the TGI [52] was over 100 µM and the GI50 [53] was over 100 µM. The TGI [53] was over 100 µM, the GI50 [54] was over 100 µM and the TGI [54] was over 100 µM. The GI50 [55] was over 100 µM and the TGI [55] was over 100 µM.
